Laboratory results published in US20160304957A1, “TREATMENT AND MODULATION OF GENE EXPRESSION AND SKIN AGING” (DSM NUTRITIONAL PRODUCTS LTD., priority 2006, published 2016).

System: HaCaT human keratinocytes
Assay: Affymetrix GeneChip microarray, transcriptional response to β-carotene and/or UVA
Type: cell-based
Settings: β-carotene 1.5 μM, unirradiated
Procedure: The cell culture experiments were carried out as described. Briefly, a subclone of passage 65 HaCaT keratinocytes, selected for differentiation capacity, was used at passages 16 to 23 after subcloning. 2×10^5 cells were seeded per 60 millimeter dish. Starting the following day, the cells were pretreated for 2 days with β-carotene at 1.5 μM, a typical concentration in human plasma after moderate dietary supplementation)
β-carotene-containing medium was prepared as follows. Fresh all-E-β-carotene (DSM Nutritional Products, Kaiseraugst, Switzerland) stock solution in THF (containing 0.025% BHT; Fluka Chemie A G, Switzerland) was diluted 1:2 with ethanol and added to cell culture medium to a final concentration of 1.5 μM β-carotene. The solvent concentration in the medium was 0.5% for all treatments. β-carotene-containing medium was prepared fresh for the daily medium changes.
On day 3 of the experiment, the cells were irradiated with a Hönle sun lamp Sol 500 (270 kJ/m^2; Dr. Hönle, Germany).
Five independent, factorially designed cell irradiation experiments were analyzed by microarray hybridization. For each experiment, one chip was hybridized per treatment condition. GeneChip® analysis was done as described in [132], which is incorporated by reference, as if recited in full herein. Gene regulation by β-carotene and/or UVA was calculated relative to placebo.
Changes in gene expression were included in further analysis only if the change factor was […], and if unpaired t-tests yielded p values≦0.05. Upregulations by a […] are labeled bold, downregulations by a change factor of […] are labeled bold italics. (Table 1) To identify the pathways affected by the treatments functional information on the genes was retrieved from public literature databases.

CC1=C(/C=C/C(C)=C/C=C/C(C)=C/C=C/C=C(C)/C=C/C=C(C)/C=C/C2=C(C)CCCC2(C)C)C(C)(C)CCC1 [β-carotene, All-E-β-carotene]
N-RAS (X02751) change factor: −1.2
NCF2; p67-phox; neutrophil oxidase factor (M32011) change factor: −0.8
NF-κB subunit (S78771) change factor: −0.1
NF-κB subunit (X61498) change factor: −0.07
NFκB; p50 (S76638) change factor: −0.46
NOL1; p120 nucleolar antigen (X55504) change factor: 0.04
NOTCH3 (U97669) change factor: −0.8
NOV (X96584) change factor: −0.7
NOXA (D90070) change factor: −0.26
NRF1 (L24123) change factor: −0.27
NRF2, subunit beta 1 (U13045) change factor: −1.5
OSR1; oxidative-stress responsive 1 (AB017642) change factor: −0.18
PAR-1; thrombin receptor (M62424) change factor: −0.5
PAR-2; proteinase activated receptor-2 (U34038) change factor: −0.27
PAR-2; proteinase activated receptor-2 (U34038, second entry) change factor: −0.03
PAR-2; proteinase activated receptor-2 (U67058) change factor: 0.03
PAR-4; protease-activated receptor 4 (AF055917) change factor: −0.49
RAIDD; death adaptor molecule (U79115) change factor: −0.22
RB1 (L49229) change factor: −0.8
RB2/p130 (X74594) change factor: −0.6
RETSDR1; retinal short-chain dehydrogenase/reductase (AF061741) change factor: 1.1
RPA; replication protein A 14 kda subunit (rpa) (L07493) change factor: −0.04
RXRα (U66306) change factor: −0.2
RXRα (X52773) change factor: −0.2
Requiem (AF001433) change factor: 0.5
SMAD 1 (U59423) change factor: −0.27
SMAD3 (U68019) change factor: 0.5
SMAD3 (U68019, second entry) change factor: 0.18
SMAD4 (U44378) change factor: −0.7
SMAD5 (U59913) change factor: −0.9
SMAD6 (AF035528) change factor: −0.47
SMAD7 (AF010193) change factor: −0.19
SMRT (U37146) change factor: −0.33
STK15; BTAK (AF011468) change factor: −0.18
TDAG51; PQ-rich protein; PHLDA1 (Z50194) change factor: 0.27
TGFβ; transforming growth factor β (X02812) change factor: 0.9
TIAR; nucleolysin tiar (M96954) change factor: −0.45
TIEG, EGRα (AF050110) change factor: −0.8
TLR3; toll-like receptor 3 (U88879) change factor: 0.6
TOP2; topoisomerase II (J04088) change factor: −0.22
TRADD; TNF receptor-1 associated protein (L41690) change factor: 0.23
TRAIL; TNF-related apoptosis inducing ligand (U37518) change factor: 0.15
TRIP14; ‘2-5’ oligoadenylate synthetase (AJ225089) change factor: −0.07
TRIP (U77845) change factor: −0.06
TSSC3 (AF035444) change factor: −0.44
TSSC3/IPL (AF001294) change factor: −0.6
VEGF (AF022375) change factor: −0.5
VEGF (AF024710) change factor: 0.02
VEGF (M63978) change factor: −0.48
VEGFR2; VEGF receptor 2; KDR; FLK-1kdr/flk-1 (AF035121) change factor: 0.6
WEE1 (X62048) change factor: −0.6
WNT5A (I20861) change factor: −0.47
WNT5A (I20861, second entry) change factor: −1.7
XRCC4 (U40622) change factor: −0.05
bFGF; basic fibroblast growth factor; FGF2 (M27968) change factor: 0.1
bilirubin udp-glucuronosyltransferase isozyme 2 (M57951) change factor: −0.25
bullous pemphigoid autoantigen bp180 (M91669) change factor: −0.45
c-myc (V00568) change factor: 0.1
c-myc (V00568, second entry) change factor: 0.1
c-myc binding protein (mbp-1) (M55914) change factor: 0.5
caspase 2, ICH-1S (U13022) change factor: −0.31
caspase 7 (U67319) change factor: −0.09
ceruloplasmin (ferroxidase) (M13699) change factor: 1
collagen type IV, α-2 (COL4A2) (X05610) change factor: −0.13
collagen type IV, α-5 (COL4A5) (M58526) change factor: −0.8
collagen type IV, α-6 (COL4A6) (D21337) change factor: −0.44
collagen type VII, α-1 (COL7A1) (L02870) change factor: −0.21
connexin 31 (AF099730) change factor: 0.17
connexin 45 (U03493) change factor: −0.06
coproporphyrinogen oxidase (D16611) change factor: −0.21
cyclin E2 (AF091433) change factor: −0.25
cyclin E (M73812) change factor: −0.23
desmocollin type 4 (D17427) change factor: −1.3
ferritin heavy chain (L20941) change factor: 0.36
frizzled-2 (I37882) change factor: −0.03
frizzled-6 (AB012911) change factor: −0.5
haemochromatosis protein (hla-h) (U60319) change factor: 0.15
hsp40; heat shock protein 40 (U40992) change factor: −0.6
integrin α6 (X53586) change factor: −1.1
integrin α6b (S66213) change factor: −0.9
integrin α6b (S66213, second entry) change factor: −1.3
jagged2 (jag2) (AF029778) change factor: −0.02
keratin 2e (KRT2E); Keratin 2A (AF019084) change factor: −0.46
keratin 5 (M21389) change factor: 0.9
keratin 15 (J00124) change factor: 1
keratin 16 (M28439) change factor: −2
keratin 17 (Z19574) change factor: 0.04
mKI67a mrna (long type) for antigen of monoclonal antibody KI-67 (X65550) change factor: −0.3
mKI67a mrna (long type) for antigen of monoclonal antibody KI-67 (X65550, second entry) change factor: −0.17
ornithine decarboxylase (M33764) change factor: −0.2
ornithine decarboxylase (X16277) change factor: −0.32
p21; wild-type p53 activated fragment-1 (WAF1) (U03106) change factor: −0.5
p33; ING1b (AB024401) change factor: −0.47
p160ROCK (U43195) change factor: −0.28
protoporphyrinogen oxidase (D38537) change factor: −0.32
rTS α (X67098) change factor: 0.13
serpinB1 (M93056) change factor: 0.7
stimulator of Fe transport (AF020761) change factor: 0.03
thioredoxin reductase (X91247) change factor: −0.08
thymidylate synthase (X02308) change factor: −0.12
transferrin receptor (X01060) change factor: −0.05
uroporphyrinogen III synthase (J03824) change factor: −0.15
α topoisomerase truncated-form (L47276) change factor: −0.43
